Legend:
[1] = target: T1, Biotinylated KRAS G12C protein (Homo sapiens, UniProt P01116, C118S/C51S/C80L/G12C); test: SOS-catalyzed nucleotide exchange assay; assay type: biochemical; details: for IC50: apparent potency, preincubation time of 60 minutes prior to addition of SOS; for inhibition at 10 µM: 10,000 nM, 60 minutes of preincubation prior to addition of SOS
T1 construct: 183 amino acids; biotin on K10
Method: Compounds are added to this complex, and then after 60 minute incubation time the mixture is treated with recombinant SOS protein and unlabeled GTP. Small molecule inhibitors stabilize the Bodipy-GDP complex whereas the untreated protein rapidly exchanges Bodipy-GDP for unlabeled GTP resulting in reduced TR-FRET signal. […] This mixture is then further diluted to 90 nM in an assay buffer (20 mM HEPES, 150 mM sodium chloride, 10 mM magnesium chloride, and 0.005% Tween) containing 15 nM of Terbium-Streptavidin (Invitrogen, catalog #PV3577) and 900 nM of Bodipy-GDP and incubated at room temperature for six hours. […] Each test compound (10 mM stock in DMSO) is diluted in DMSO to make a 10-point, 3-fold dilution series in a 384-well low dead volume microplate (Labcyte, catalog #LP-0200). Once titrations are made, 10 nL of the diluted compounds is acoustically dispensed into a 384-well assay plate (Corning, catalog #3820) using an Echo 550 (Labcyte). […] Each well then receives 3 μL of 240 nM recombinant human SOS protein and 9 mM GTP (Sigma, G8877) in assay buffer and is incubated at room temperature for 60 minutes. The time-resolved fluorescence resonance energy transfer signal for the assay plate is measured on an Envision (PerkinElmer) plate reader: Excitation filter=340 nm; emission1=495 nm; emission2=520 nm; dichroic mirror=D400/D505; delay time=100 μs. The signal of each well is determined as the ratio of the emission at 520 nm to that at 495 nm. […] The apparent effect as a function of compound concentration is fit to a four parameter logistic equation.

[2] = system: NCI-H358 cells; test: Cellular phospho-ERK assay; assay type: cell-based; details: Homo sapiens, NCI-H358, 2 h, NCI-H358 cells; 2 hour incubation; ratio of p-Erk vs total Erk; read-out: IC50
Method: NCI-H358 cells (ATCC® CRL-5807™) were cultured in T150 flask in growth medium (RPMI medium 1640-GlutaMAX™-1 (ThermoFisher Scientific 61870) containing 10% fetal bovine serum (ThermoFisher Scientific 10091148)). The cells were harvested in growth medium after TrypLE (ThermoFisher scientific 12604021) digestion and were seeded in 384-well collagen coated cell culture plate (Corning 356702) at a density of 15,000 cells/well, and incubated at 37° C., 5% CO2 overnight. The compound dose-response titrations were prepared and appropriate amounts of compounds were dispensed in 384-well intermediate plate using Echo 550 liquid handler. RPMI medium 1640-GlutaMAX™-I were added to the intermediate plate and transferred to 384-well cell culture plate, which was incubated at 37° C., 5% CO2 for 2 hours. After removal of medium from the plate, cells were lysed in lysis buffer from Alpha SureFire® Ultra™ Multiplex p-Erk and total Erk assay kit (PerkinElmer MPSU-PTERK) containing Halt™ Protease and Phosphotase inhibitor cocktail (ThermoFisher Scientific 78446) at room temperature with constant shaking at 300 rpm for 30 minutes. The cell lysates were then transferred to OptiPlate-384 plate (PerkinElmer 6005620) and the phosphorylation of Erk and total Erk levels were detected by Alpha SureFire Ultra Multiplex p-Erk kit (PerkinElmer MPSU-PTERK) following the manufacturer's protocol. Assay plates were read on an EnVision Multimode Plate Reader (PerkinElmer) and the ratio of p-Erk vs total Erk in each well was used as the final readout. Dose response curves were analyzed using a 4-parameter logistic model to calculate IC50 values using spotfire software.

T1 sequence (P01116 with tags, fused parts or gaps isoform P01116-2 G12C/C51S/C80L/C118S): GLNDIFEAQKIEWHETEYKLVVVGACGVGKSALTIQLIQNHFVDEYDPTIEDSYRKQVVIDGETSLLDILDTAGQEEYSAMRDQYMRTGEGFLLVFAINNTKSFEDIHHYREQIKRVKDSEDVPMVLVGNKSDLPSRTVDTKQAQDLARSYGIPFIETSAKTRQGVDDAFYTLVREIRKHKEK

IC50 [1] | IC50 [2] | inhibition at 10 µM [1] | Structure (SMILES)
1 nM | 41 nM |  | C=CC(=O)N1CCN(c2cc(C(=O)N[C@@H]3CCC[C@H]3N(C)C)nc3c2CCN(c2cccc4cccc(C)c24)C3)C[C@@H]1CC#N (mixture of isomers) [Compound 66, 4-((S)-4-acryloyl-3-(cyanomethyl)piperazin-1-yl)-N-((1R,2R)-2-(dimethylamino)cyclopentyl)-7-(8-methylnaphthalen-1-yl)-5,6,7,8-tetrahydro-1,7-naphthyridine-2-carboxamide, as a mixture with 4-((S)-4-acryloyl-3-(cyanomethyl)piperazin-1-yl)-N-((1S,2S)-2-(dimethylamino)cyclopentyl)-7-(8-methylnaphthalen-1-yl)-5,6,7,8-tetrahydro-1,7-naphthyridine-2-carboxamide]
90 nM | 9770 nM |  | C=CC(=O)N1CCN(c2cc(C(=O)NC(CC)CN3CCCC3)nc3c2CCN(c2cccc4cccc(C)c24)C3)CC1 (racemic) [Compound 23, rac-4-(4-acryloylpiperazin-1-yl)-7-(8-methylnaphthalen-1-yl)-N-(1-(pyrrolidin-1-yl)butan-2-yl)-5,6,7,8-tetrahydro-1,7-naphthyridine-2-carboxamide]
 | 324 nM |  | C=CC(=O)N1CCN(c2cc(C(=O)NCC3CCCN3C)nc3c2CCN(c2cccc4cccc(C)c24)C3)C[C@@H]1CC#N (mixture of isomers) [Compound 82, 4-((S)-4-acryloyl-3-(cyanomethyl)piperazin-1-yl)-7-(8-methylnaphthalen-1-yl)-N-(((R)-1-methylpyrrolidin-2-yl)methyl)-5,6,7,8-tetrahydro-1,7-naphthyridine-2-carboxamide, as a mixture with 4-((S)-4-acryloyl-3-(cyanomethyl)piperazin-1-yl)-7-(8-methylnaphthalen-1-yl)-N-(((S)-1-methylpyrrolidin-2-yl)methyl)-5,6,7,8-tetrahydro-1,7-naphthyridine-2-carboxamide]
180 nM | 3550 nM |  | C=CC(=O)N1CCN(c2c(C)c(C(=O)N[C@H](C)CN(C)C)nc3c2CCN(c2cccc4cccc(C)c24)C3)C[C@@H]1CC#N (racemic) [Compound 85, 4-((S)-4-acryloyl-3-(cyanomethyl)piperazin-1-yl)-N—((R)-1-(dimethylamino)propan-2-yl)-3-methyl-7-(8-methylnaphthalen-1-yl)-5,6,7,8-tetrahydro-1,7-naphthyridine-2-carboxamide]
8.3 nM | 1740 nM |  | C=CC(=O)N1CCN(c2cc(C(=O)NCC3CCCCN3)nc3c2CCN(c2cccc4cccc(C)c24)C3)C[C@@H]1CC#N (mixture of isomers) [Compound 99, 4-((S)-4-acryloyl-3-(cyanomethyl)piperazin-1-yl)-7-(8-methylnaphthalen-1-yl)-N-(((R)-piperidin-2-yl)methyl)-5,6,7,8-tetrahydro-1,7-naphthyridine-2-carboxamide, as a mixture with 4-((S)-4-acryloyl-3-(cyanomethyl)piperazin-1-yl)-7-(8-methylnaphthalen-1-yl)-N-(((S)-piperidin-2-yl)methyl)-5,6,7,8-tetrahydro-1,7-naphthyridine-2-carboxamide]
4.5 nM | 1800 nM |  | C=CC(=O)N1CCN(c2cc(C(=O)NC3(CC)CCNC3)nc3c2CCN(c2cccc4cccc(C)c24)C3)C[C@@H]1CC#N (mixture of isomers) [Compound 101, 4-((S)-4-acryloyl-3-(cyanomethyl)piperazin-1-yl)-N-((R)-3-ethylpyrrolidin-3-yl)-7-(8-methylnaphthalen-1-yl)-5,6,7,8-tetrahydro-1,7-naphthyridine-2-carboxamide, as a mixture with 4-((S)-4-acryloyl-3-(cyanomethyl)piperazin-1-yl)-N-((S)-3-ethylpyrrolidin-3-yl)-7-(8-methylnaphthalen-1-yl)-5,6,7,8-tetrahydro-1,7-naphthyridine-2-carboxamide]
5.4 nM | 809 nM |  | C=CC(=O)N1CCN(c2cc(C(=O)NC3(C)CCCNC3)nc3c2CCN(c2cccc4cccc(C)c24)C3)C[C@@H]1CC#N (mixture of isomers) [Compound 102, 4-((S)-4-acryloyl-3-(cyanomethyl)piperazin-1-yl)-7-(8-methylnaphthalen-1-yl)-N-((R)-3-methylpiperidin-3-yl)-5,6,7,8-tetrahydro-1,7-naphthyridine-2-carboxamide, as a mixture with 4-((S)-4-acryloyl-3-(cyanomethyl)piperazin-1-yl)-7-(8-methylnaphthalen-1-yl)-N-((S)-3-methylpiperidin-3-yl)-5,6,7,8-tetrahydro-1,7-naphthyridine-2-carboxamide]
 |  | 33% | C=CC(=O)N1CCN(c2cc(C(=O)N3CCC[C@@H]3CN3CCC(=O)N3)nc3c2CCN(c2cccc4cccc(C)c24)C3)CC1 [Compound 43, (R)-1-((1-(4-(4-acryloylpiperazin-1-yl)-7-(8-methylnaphthalen-1-yl)-5,6,7,8-tetrahydro-1,7-naphthyridine-2-carbonyl)pyrrolidin-2-yl)methyl)pyrazolidin-3-one]
7290 nM |  |  | C=CC(=O)N1CCN(c2cc(C(=O)NC3CN(C)C3)nc3c2CCN(c2cccc4cccc(C)c24)C3)CC1 [Compound 48, 4-(4-acryloylpiperazin-1-yl)-N-(1-methylazetidin-3-yl)-7-(8-methylnaphthalen-1-yl)-5,6,7,8-tetrahydro-1,7-naphthyridine-2-carboxamide]
2180 nM |  |  | C=CC(=O)N1CCN(c2cc(C(=O)N[C@H]3CCN(C)C3)nc3c2CCN(c2cccc4cccc(C)c24)C3)CC1 [Compound 49, (S)-4-(4-acryloylpiperazin-1-yl)-7-(8-methylnaphthalen-1-yl)-N-(1-methylpyrrolidin-3-yl)-5,6,7,8-tetrahydro-1,7-naphthyridine-2-carboxamide]
3570 nM |  |  | C=CC(=O)N1CCN(c2cc(C(=O)N[C@@H]3CCN(C)C3)nc3c2CCN(c2cccc4cccc(C)c24)C3)CC1 [Compound 50, (R)-4-(4-acryloylpiperazin-1-yl)-7-(8-methylnaphthalen-1-yl)-N-(1-methylpyrrolidin-3-yl)-5,6,7,8-tetrahydro-1,7-naphthyridine-2-carboxamide]
9150 nM |  |  | C=CC(=O)N1CCN(c2cc(C(=O)NC3CCN(C)CC3)nc3c2CCN(c2cccc4cccc(C)c24)C3)CC1 [Compound 54, 4-(4-acryloylpiperazin-1-yl)-7-(8-methylnaphthalen-1-yl)-N-(1-methylpiperidin-4-yl)-5,6,7,8-tetrahydro-1,7-naphthyridine-2-carboxamide]
 |  | 38% | C=CC(=O)N1C[C@H](C)N(c2cc(C(=O)NCCN(C)C)nc3c2CCN(c2cccc4cccc(C)c24)C3)C[C@H]1C [Compound 59, 4-((2S,5R)-4-acryloyl-2,5-dimethylpiperazin-1-yl)-N-(2-(dimethylamino)ethyl)-7-(8-methylnaphthalen-1-yl)-5,6,7,8-tetrahydro-1,7-naphthyridine-2-carboxamide]
793 nM |  |  | C=CC(=O)N1CCN(c2cc(C(=O)N[C@@H]3[C@H](N)CCCC3(F)F)nc3c2CCN(c2cccc4cccc(C)c24)C3)C[C@@H]1CC#N [Compound 95, 4-((S)-4-acryloyl-3-(cyanomethyl)piperazin-1-yl)-N-((1R,6R)-6-amino-2,2-difluorocyclohexyl)-7-(8-methylnaphthalen-1-yl)-5,6,7,8-tetrahydro-1,7-naphthyridine-2-carboxamide]

Reference: patent US20220402916A1, “SMALL MOLECULE INHIBITORS OF KRAS G12C MUTANT” (Merck Sharp & Dohme Corp., priority 2019, published 2022)
